In publication PMC7932555, “A diffusible signal factor of the intestine dictates Salmonella invasion through its direct control of the virulence activator HilD” (PLoS Pathogens, 2021):
Substitutions are numbered along the chain they refer to.

Legend:
[1] = tested on: Salmonella invasion of HEp-2 cells; test: Invasion of HEp-2 cells by gentamicin protection assay; assay type: cell-based
Description: Invasion was quantified by gentamicin protection assay. HEp-2 cells were seeded into 24-well cell culture plates (~10^5/well) and allowed to attach overnight at 37° C with 5% CO2). Salmonella strains were grown overnight without aeration in LB buffered with 100 mM HEPES, pH 8.0, with antibiotics and fatty acids or control solvent. Overnight cultures were washed with sterile PBS. Bacteria were added to the HEp-2 cell monolayer (MOI 1:10), centrifuged briefly (10 minutes at 200 x g) and incubated for 1 hour at 37°C. Wells were washed three times with sterile PBS followed by addition of media with 200 μg/mL gentamicin and incubated for 1 hour. Cells were then washed three times with sterile PBS and lysed by 0.1% Triton X-100. Intracellular bacteria were enumerated by spreading lysates onto LB agar plates with appropriate selection.

wild type HilD [2] = target: T1, wild type HilD (Salmonella typhimurium, UniProt P0CL08); test: ELISA binding of fatty acid to wild type HilD; settings: plates pre-adsorbed with 10 μM fatty acid, non-linear regression
T1 construct: made in house; host or cells: E. coli BL21 (DE3)
T1 sequence (P0CL08 1-309): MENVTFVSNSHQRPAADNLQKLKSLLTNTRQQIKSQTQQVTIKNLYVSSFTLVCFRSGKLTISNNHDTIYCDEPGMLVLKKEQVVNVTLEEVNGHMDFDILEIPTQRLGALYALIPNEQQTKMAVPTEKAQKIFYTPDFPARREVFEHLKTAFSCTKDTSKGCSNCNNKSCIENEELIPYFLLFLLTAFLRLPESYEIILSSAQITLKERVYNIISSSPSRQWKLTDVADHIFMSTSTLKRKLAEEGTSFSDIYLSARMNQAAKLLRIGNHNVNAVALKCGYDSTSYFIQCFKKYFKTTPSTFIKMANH
Description: (§1) hilD or its mutated sequences were amplified and cloned into pET15b(+) under an N-terminal 6xHis tag. The constructs were transformed into E. coli BL21 (DE3) for expression. Transformants were induced with 5 mM IPTG for 4 hours. Cultures were centrifuged, lysed and treated with TALON beads as described above. Bound protein was eluted by applying 1 ml elution buffer to the columns. Elution was confirmed by SDS-PAGE. Following confirmation, eluted samples were dialyzed overnight in dialysis buffer (50 mM sodium phosphate, 300 mM NaCl, 10% glycerol). Protein concentration and quality were assessed by Bradford estimation and SDS-PAGE.
(§2) 96-well polystyrene plates were coated with 10 μM fatty acid in coating buffer (0.05 M sodium carbonate-bicarbonate, pH 9.3) and incubated overnight at 4°C. Wells were washed three times with PBS, followed by addition of blocking buffer (1% Ficoll 400 in PBS). After blocking, wells were washed three times with PBS, and different concentrations of proteins in blocking buffer were added and incubated at room temperature for 2 hours. […] After color development, reaction was stopped with 1N sulfuric acid and read spectrophotometrically at 490 nm. Binding was analyzed in GraphPad Prism.
(§3) All experiments were repeated twice and data of representative experiment have been shown. Kd was calculated by using Total One-Site binding in GraphPad Prism. […]

HilD^K293A [3] = target: T2, HilD^K293A (Salmonella typhimurium, UniProt P0CL08, K293A); test: ELISA binding of fatty acid to HilD K293A
T2 construct: made in house; host or cells: E. coli BL21 (DE3)
T2 sequence (P0CL08 1-309 K293A): T1 sequence (P0CL08 1-309) with K293A
Description: as §1, §2, §3

HilD^Q290A [4] = target: T3, HilD^Q290A (Salmonella typhimurium, UniProt P0CL08, Q290A); test: ELISA binding of fatty acid to HilD Q290A
T3 construct: made in house; host or cells: E. coli BL21 (DE3)
T3 sequence (P0CL08 1-309 Q290A): T1 sequence (P0CL08 1-309) with Q290A
Description: as §1, §2, §3

wild type HilD [5] = target: T1, wild type HilD; test: EMSA of hilA promoter DNA with wild type HilD; assay type: biochemical; settings: wild type HilD 150 nM; 10 nM hilA promoter DNA; increasing concentrations or 30 μM fatty acid
Description: (§4) These were performed as previously described. Briefly, 10 nM hilA promoter DNA (-286 to +31) was mixed with 150 nM HilD in a binding buffer (100 mM Tris pH 7.5, 10 mM EDTA, 1M KCl, 1 mM DTT, 50% v/v glycerol). Fatty acids or control solvents were added at various concentrations. Binding reaction was performed at room temperature for 1 hour. Dye solution was added to final concentration of 1X and samples were separated on 10% acrylamide gels. DNA was stained using SYBR Safe and visualized in BioRad GelDoc imaging system.

HilD^K293A [6] = target: T2, HilD^K293A; test: EMSA of hilA promoter DNA with HilD K293A; assay type: biochemical; settings: 10 nM hilA promoter DNA, 30 μM fatty acid
Description: as §4

HilD^Q290A [7] = target: T3, HilD^Q290A; test: EMSA of hilA promoter DNA with HilD Q290A; assay type: biochemical; settings: 10 nM hilA promoter DNA, 30 μM fatty acid
Description: as §4

[8] = Salmonella expressing HilD K293A grown overnight with 20 μM fatty acid
[9] = Salmonella expressing HilD N44A grown overnight with 20 μM fatty acid
[10] = Salmonella expressing wild type HilD grown overnight with 20 μM fatty acid
[11] = plates pre-adsorbed with 10 μM fatty acid

Row | Compound | inhibition of invasion of HEp-2 cells [1, 8] | inhibition of invasion of HEp-2 cells [1, 9] | inhibition of invasion of HEp-2 cells [1, 10] | Kd (wild type HilD [2]) | binding in ELISA (in words) (HilD^K293A [3]) | Kd (HilD^Q290A [4]; [11]) | effect on HilD binding to hilA promoter DNA (wild type HilD [5]) | effect on HilD binding to hilA promoter DNA (HilD^K293A [6]) | inhibition of invasion of HEp-2 cells ([1]; Salmonella expressing HilD Q290A grown overnight with 20 μM fatty acid) | Kd (HilD^K293A [3]; [11]) | binding in ELISA (in words) (HilD^Q290A [4]) | effect on HilD binding to hilA promoter DNA (HilD^Q290A [7])
1 | CCCCCCCCCCCCC/C=C\C(=O)O [c2-HDA, cis-2-hexadecenoic acid] | invaded HEp-2 cells despite the presence of 20 μM c2-HDA | unaffected | 8 fold | 3.5 µM | negligible binding | 9.7 µM | progressively impaired interaction of wild type HilD with the DNA target | remained bound to the hilA promoter |  |  |  | 
2 | CCCCCCCCCCCCC/C=C/C(=O)O [t2-HDA, trans-2-hexadecenoic acid] | 2 fold | unaffected | 2 fold | 9.8 µM |  |  | efficiently reduced the DNA binding capacity | efficiently reduced the DNA binding capacity | had no effect | 16.7 µM | failed to bind | did not disrupt DNA binding
